Patent publication EP4289427A1, “DIHYDRO[1,8]NAPHTHYRIDIN-7-ONE AND PYRIDO[3,2-B][1,4]OXAZIN-3-ONE FOR USE IN TREATING CANCER, AND METASTASES IN PARTICULAR” (Anagenesis Biotechnologies, priority 2022, dated 2023)

Tests used:
[1] = system: MDA-MB-231 cells; assay: Cytotoxicity assay (CellTiter-Glo 2.0) on MDA-MB-231 cells; type: cell-based, Human; conditions: incubation 3 days; for IC50: Homo sapiens, 72 h
Experimental: (§1) Cytotoxicity assays consist in treating cells with compounds and assessing remaining viability after a defined incubation time, depending on the cell line. CellTiter-Glo® 2.0 reagent allows viability measurement by quantification of ATP present, which is an indicator of metabolically active cells.
(§2) The cancer cell lines were cultivated in their respective growth medium (see tables 6a and 6b). On day 0 of the cytotoxicity assay, the cells were harvested and seeded into a 384-well plate at a defined density in their respective growth medium (see tables 6a and 6b). Compounds to be tested were then added onto the cells and incubated for a defined duration (see tables 6a and 6b). Following incubation, CellTiter-Glo® 2.0 reagent (cat.no. G9241 from Promega) was added into the wells (vol/vol, according to the manufacturer's recommendations), plates were gently shaken and incubated for 10 minutes in the dark at room temperature. Bioluminescence was then measured with a multimode plate reader (Victor Nivo from Perkin Elmer), and cell viability and relative IC50 were determined. Table 6a: Cancer cell characteristics, culture and cytotoxic assay conditions

[2] = system: HUVECs; assay: Tube formation assay (anti-angiogenic activity); type: cell-based, human; conditions: incubation 16 to 18 hours; for IC50: Homo sapiens, HUVEC
Description: Angiogenesis is a phenomenon that includes different processes, such as endothelial cell proliferation, migration and differentiation that lead to the formation of new blood vessels. Tube formation assay is a standard in vitro test to assess angiogenesis: briefly, human Umbilical Vein Endothelial cells (hereafter "HUVECs") cultivated on a gelled basement matrix spontaneously proliferate, migrate and differentiate to form tube-like structures, that appear elongated and that connect to each other to form a network.
HUVECs were cultivated in Endothelial Cell Growth Medium (cat.no. C-22010 from Promocell) supplemented with 1% PenStrep (hereafter "HUVEC medium"). On day 0, HUVECs were harvested and transferred into a 384-well plate precoated with 10 µl/well of Cultrex UltiMatrix Reduced Growth factor basement membrane (cat.no. BME001-10 from BioTechne), according to the manufacturer's instructions, at a density of 5000 cells/well in HUVEC medium. Compounds to be tested were then added onto the cells and incubated for 16 to 18 hours at 37°C. After this incubation period, the cells were stained with calcein-AM (cat.no. 10462052 from Fisher Scientific) and pictures were acquired using a confocal fluorescent microscope (IXM from Molecular Devices). Tube formation was measured with MetaXpress® Software.

[3] = system: EoL-1 cells; assay: Cytotoxicity assay (CellTiter-Glo 2.0) on EoL-1 cells; type: cell-based, Human; conditions: incubation 1 day; for IC50: Homo sapiens, EOL1, 24 h
Experimental: as §1, §2

[4] = system: RD cells; assay: Cytotoxicity assay (CellTiter-Glo 2.0) on RD cells; type: cell-based, Human; conditions: for IC50: Homo sapiens
Experimental: as §1, §2

[5] = system: 4T1 cells; assay: Cytotoxicity assay (CellTiter-Glo 2.0) on 4T1 cells; type: cell-based, Mouse; conditions: incubation 2 days; for IC50: Mus musculus, 48 h
Experimental: as §1, §2

## CSc1cc(Oc2ccnc3c2CCC(=O)N3)ccc1NC(=O)Nc1cc(C(C)(C)C)on1 [Compound 026, 1-(5-tert-butylisoxazol-3-yl)-3-[2-methylsulfanyl-4-[(7-oxo-6,8-dihydro-5H-1,8-naphthyridin-4-yl)oxy]phenyl]urea]
[1]
  IC50: 1000 to 5000 nM
  Cytotoxicity: ++ (50% ≤ cytotoxicity < 85%)
[2]
  IC50: 100 to 500 nM
  Angiogenesis inhibition: +++ (angiogenesis inhibition ≥ 80%)
[3]
  IC50: < 1 nM
  Cytotoxicity: +++ (cytotoxicity ≥ 85%)
[4]; 2 day-treatment
  Cytotoxicity: ++ (50% ≤ cytotoxicity < 85%)
[4]; 4 day-treatment
  Cytotoxicity: ++ (50% ≤ cytotoxicity < 85%)
[4]; 48 h, 2 day-treatment
  IC50: 1 to 5 µM
[4]; 96 h, 4 day-treatment
  IC50: 1 to 5 µM
[5]
  IC50: 1000 to 5000 nM
  Cytotoxicity: +++ (cytotoxicity ≥ 85%)

## CN(C)Cc1cccc(-n2nc(C(C)(C)C)cc2NC(=O)Nc2ccc(Oc3ccnc4c3CCC(=O)N4)cc2C(F)(F)F)c1 [Compound 028, 1-[5-tert-butyl-2-[3-[(dimethylamino)methyl]phenyl]pyrazol-3-yl]-3-[4-[(7-oxo-6,8-dihydro-5H-1,8-naphthyridin-4-yl)oxy]-2-(trifluoromethyl)phenyl]urea]
[1]
  IC50: 1000 to 5000 nM
  Cytotoxicity: +++ (cytotoxicity ≥ 85%)
[2]
  IC50: < 100 nM
  Angiogenesis inhibition: +++ (angiogenesis inhibition ≥ 80%)
[3]
  IC50: 1 to 10 nM
  Cytotoxicity: ++ (50% ≤ cytotoxicity < 85%)
[4]; 2 day-treatment
  Cytotoxicity: ++ (50% ≤ cytotoxicity < 85%)
[4]; 4 day-treatment
  Cytotoxicity: +++ (cytotoxicity ≥ 85%)
[4]; 48 h, 2 day-treatment
  IC50: 1 to 5 µM
[4]; 96 h, 4 day-treatment
  IC50: 1 to 5 µM
[5]
  IC50: < 1000 nM
  Cytotoxicity: +++ (cytotoxicity ≥ 85%)

## CC(C)(C)c1cc(NC(=O)Nc2ccc(Oc3ccnc4c3CCC(=O)N4)cc2C(F)(F)F)n(-c2cccnc2)n1 [Compound 030, 1-[5-tert-butyl-2-(3-pyridyl)pyrazol-3-yl]-3-[4-[(7-oxo-6,8-dihydro-5H-1,8-naphthyridin-4-yl)oxy]-2-(trifluoromethyl)phenyl]urea]
[1]
  IC50: 1000 to 5000 nM
  Cytotoxicity: ++ (50% ≤ cytotoxicity < 85%)
[2]
  IC50: < 100 nM
  Angiogenesis inhibition: +++ (angiogenesis inhibition ≥ 80%)
[3]
  IC50: 10 to 100 nM
  Cytotoxicity: ++ (50% ≤ cytotoxicity < 85%)
[4]; 2 day-treatment
  Cytotoxicity: ++ (50% ≤ cytotoxicity < 85%)
[4]; 4 day-treatment
  Cytotoxicity: ++ (50% ≤ cytotoxicity < 85%)
[4]; 48 h, 2 day-treatment
  IC50: 5 to 10 µM
[4]; 96 h, 4 day-treatment
  IC50: 5 to 10 µM
[5]
  IC50: 1000 to 5000 nM
  Cytotoxicity: +++ (cytotoxicity ≥ 85%)

## CSc1cc(Oc2ccnc3c2OCC(=O)N3)ccc1NC(=O)Nc1cc(C(C)(C)C)nn1-c1ccc(F)cc1F [Compound 031, 1-[5-tert-butyl-2-(2,4-difluorophenyl)pyrazol-3-yl]-3-[2-methylsulfanyl-4-[(3-oxo-4H-pyrido[3,2-b][1,4]oxazin-8-yl)oxy]phenyl]urea]
[1]
  IC50: 1000 to 5000 nM
  Cytotoxicity: ++ (50% ≤ cytotoxicity < 85%)
[2]
  IC50: 100 to 500 nM
  Angiogenesis inhibition: +++ (angiogenesis inhibition ≥ 80%)
[3]
  IC50: 1 to 10 nM
  Cytotoxicity: +++ (cytotoxicity ≥ 85%)
[4]; 2 day-treatment
  Cytotoxicity: ++ (50% ≤ cytotoxicity < 85%)
[4]; 4 day-treatment
  Cytotoxicity: ++ (50% ≤ cytotoxicity < 85%)
[4]; 48 h, 2 day-treatment
  IC50: 1 to 5 µM
[4]; 96 h, 4 day-treatment
  IC50: 1 to 5 µM
[5]
  IC50: 1000 to 5000 nM
  Cytotoxicity: +++ (cytotoxicity ≥ 85%)

## CSc1cc(Oc2ccnc3c2OCC(=O)N3)ccc1NC(=O)Nc1cc(C(C)(C)C)nn1-c1ccc(CN(C)C)cc1 [Compound 033, 1-[5-tert-butyl-2-[4-[(dimethylamino)methyl]phenyl]pyrazol-3-yl]-3-[2-methylsulfanyl-4-[(3-oxo-4H-pyrido[3,2-b][1,4]oxazin-8-yl)oxy]phenyl]urea]
[1]
  IC50: 1000 to 5000 nM
  Cytotoxicity: +++ (cytotoxicity ≥ 85%)
[2]
  IC50: < 100 nM
  Angiogenesis inhibition: +++ (angiogenesis inhibition ≥ 80%)
[3]
  IC50: 1 to 10 nM
  Cytotoxicity: +++ (cytotoxicity ≥ 85%)
[4]; 2 day-treatment
  Cytotoxicity: +++ (cytotoxicity ≥ 85%)
[4]; 4 day-treatment
  Cytotoxicity: +++ (cytotoxicity ≥ 85%)
[4]; 48 h, 2 day-treatment
  IC50: 1 to 5 µM
[4]; 96 h, 4 day-treatment
  IC50: 1 to 5 µM
[5]
  IC50: < 1000 nM
  Cytotoxicity: +++ (cytotoxicity ≥ 85%)

## CN(C)Cc1ccc(-n2nc(C(C)(C)C)cc2NC(=O)Nc2ccc(Oc3ccnc4c3CCC(=O)N4)cc2C(F)(F)F)cc1 [Compound 034, 1-[5-tert-butyl-2-[4-[(dimethylamino)methyl]phenyl]pyrazol-3-yl]-3-[4-[(7-oxo-6,8-dihydro-5H-1,8-naphthyridin-4-yl)oxy]-2-(trifluoromethyl)phenyl]urea]
[1]
  IC50: 1000 to 5000 nM
  Cytotoxicity: +++ (cytotoxicity ≥ 85%)
[2]
  IC50: < 100 nM
  Angiogenesis inhibition: +++ (angiogenesis inhibition ≥ 80%)
[3]
  IC50: 1 to 10 nM
  Cytotoxicity: ++ (50% ≤ cytotoxicity < 85%)
[4]; 2 day-treatment
  Cytotoxicity: +++ (cytotoxicity ≥ 85%)
[4]; 4 day-treatment
  Cytotoxicity: +++ (cytotoxicity ≥ 85%)
[4]; 48 h, 2 day-treatment
  IC50: 1 to 5 µM
[4]; 96 h, 4 day-treatment
  IC50: 1 to 5 µM
[5]
  IC50: < 1000 nM
  Cytotoxicity: +++ (cytotoxicity ≥ 85%)

## CSc1cc(Oc2ccnc3c2OCC(=O)N3)ccc1NC(=O)Nc1cc(C(C)(C)C)nn1-c1cccc(CN2CCOCC2)c1 [Compound 035, 1-[5-tert-butyl-2-[3-(morpholinomethyl)phenyl]pyrazol-3-yl]-3-[2-methylsulfanyl-4-[(3-oxo-4H-pyrido[3,2-b][1,4]oxazin-8-yl)oxy]phenyl]urea]
[1]
  IC50: 1000 to 5000 nM
  Cytotoxicity: +++ (cytotoxicity ≥ 85%)
[2]
  IC50: 100 to 500 nM
  Angiogenesis inhibition: +++ (angiogenesis inhibition ≥ 80%)
[3]
  IC50: 1 to 10 nM
  Cytotoxicity: +++ (cytotoxicity ≥ 85%)
[4]; 2 day-treatment
  Cytotoxicity: ++ (50% ≤ cytotoxicity < 85%)
[4]; 4 day-treatment
  Cytotoxicity: ++ (50% ≤ cytotoxicity < 85%)
[4]; 48 h, 2 day-treatment
  IC50: 1 to 5 µM
[4]; 96 h, 4 day-treatment
  IC50: 5 to 10 µM
[5]
  IC50: 1000 to 5000 nM
  Cytotoxicity: +++ (cytotoxicity ≥ 85%)

## CC(C)(C)c1cc(NC(=O)Nc2ccc(Oc3ccnc4c3OCC(=O)N4)cc2C(F)(F)F)on1 [Compound 037, 1-(3-tert-butylisoxazol-5-yl)-3-[4-[(3-oxo-4H-pyrido[3,2-b][1,4]oxazin-8-yl)oxy]-2-(trifluoromethyl)phenyl]urea]
[1]
  IC50: 1000 to 5000 nM
  Cytotoxicity: ++ (50% ≤ cytotoxicity < 85%)
[2]
  IC50: 100 to 500 nM
  Angiogenesis inhibition: ++ (80% > angiogenesis inhibition ≥ 50%)
[3]
  IC50: 1 to 10 nM
  Cytotoxicity: +++ (cytotoxicity ≥ 85%)
[4]; 2 day-treatment
  Cytotoxicity: ++ (50% ≤ cytotoxicity < 85%)
[4]; 4 day-treatment
  Cytotoxicity: ++ (50% ≤ cytotoxicity < 85%)
[4]; 48 h, 2 day-treatment
  IC50: 5 to 10 µM
[4]; 96 h, 4 day-treatment
  IC50: 1 to 5 µM
[5]
  IC50: 1000 to 5000 nM
  Cytotoxicity: +++ (cytotoxicity ≥ 85%)

## CSc1cc(Oc2ccnc3c2OCC(=O)N3)ccc1NC(=O)Nc1cc(C(C)(C)C)nn1-c1ccc(CN2CCOCC2)cc1 [Compound 038, 1-[5-tert-butyl-2-[4-(morpholinomethyl)phenyl]pyrazol-3-yl]-3-[2-methylsulfanyl-4-[(3-oxo-4H-pyrido[3,2-b][1,4]oxazin-8-yl)oxy]phenyl]urea]
[1]
  IC50: 1000 to 5000 nM
  Cytotoxicity: ++ (50% ≤ cytotoxicity < 85%)
[2]
  IC50: 100 to 500 nM
  Angiogenesis inhibition: +++ (angiogenesis inhibition ≥ 80%)
[3]
  IC50: 1 to 10 nM
  Cytotoxicity: ++ (50% ≤ cytotoxicity < 85%)
[4]; 2 day-treatment
  Cytotoxicity: ++ (50% ≤ cytotoxicity < 85%)
[4]; 4 day-treatment
  Cytotoxicity: ++ (50% ≤ cytotoxicity < 85%)
[4]; 48 h, 2 day-treatment
  IC50: 1 to 5 µM
[4]; 96 h, 4 day-treatment
  IC50: 1 to 5 µM
[5]
  IC50: 1000 to 5000 nM
  Cytotoxicity: +++ (cytotoxicity ≥ 85%)

## CC(C)(C)c1cc(NC(=O)Nc2ccc(Oc3ccnc4c3OCC(=O)N4)cc2C(F)(F)F)n(-c2cncc(F)c2)n1 [Compound 039, 1-[5-tert-butyl-2-(5-fluoro-3-pyridyl)pyrazol-3-yl]-3-[4-[(3-oxo-4H-pyrido[3,2-b][1,4]oxazin-8-yl)oxy]-2-(trifluoromethyl)phenyl]urea]
[1]
  IC50: 1000 to 5000 nM
  Cytotoxicity: ++ (50% ≤ cytotoxicity < 85%)
[2]
  IC50: < 100 nM
  Angiogenesis inhibition: +++ (angiogenesis inhibition ≥ 80%)
[3]
  IC50: 10 to 100 nM
  Cytotoxicity: ++ (50% ≤ cytotoxicity < 85%)
[4]; 2 day-treatment
  Cytotoxicity: ++ (50% ≤ cytotoxicity < 85%)
[4]; 4 day-treatment
  Cytotoxicity: + (20 % ≤ cytotoxicity < 50%)
[4]; 48 h, 2 day-treatment
  IC50: 1 to 5 µM
[4]; 96 h, 4 day-treatment
  IC50: 5 to 10 µM
[5]
  IC50: < 1000 nM
  Cytotoxicity: +++ (cytotoxicity ≥ 85%)
